pIC50: −log10 of the molar value. Read-outs that look alike come from different tables or passages of the source.
Target: human recombinant ATX (Homo sapiens, UniProt Q13822)
Test: Autotaxin (ATX) activity Quanta Red assay
Type: biochemical
Settings: read-out: Activity (ATX activity, Quanta Red assay; IC50)
Procedure, shortened: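 Recombinant human ATX reaction stopped after 2 h with Quanta Red stop solution; fluorescence read at […]. Controls with DMSO, with and without ATX; IC50 in duplicate.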

[1] = human recombinant ATX 0.8 μg/mL, 2 hours at room temperature, IC50 determined in duplicate

pIC50 | pIC50 [1] | Structure (SMILES)
7.77 |  | CN(C)CCCOc1ccc(CNC(=O)CCc2nc3ccncc3n2Cc2ccc(OC(F)(F)F)cc2)cc1 [Example 128, N-[4-(3-Dimethylamino-propoxy)-benzyl]-3-[3-(4-trifluoromethoxy-benzyl)-3H-imidazo[4,5-c]pyridin-2-yl]-propionamide]
7.70 |  | O=C(CCc1nc2ccncc2n1Cc1ccc(OC(F)(F)F)cc1)NCc1ccc(Cl)cc1 [Example 129, N-(4-Chloro-benzyl)-3-[3-(4-trifluoromethoxy-benzyl)-3H-imidazo[4,5-c]pyridin-2-yl]-propionamide]
7.68 |  | C[C@H](NC(=O)CCc1nc2ccncc2n1Cc1ccc(F)cc1)c1ccccc1 [Example 130, 3-[3-(4-Fluoro-benzyl)-3H-imidazo[4,5-c]pyridin-2-yl]-N-((S)-1-phenyl-ethyl)-propionamide]
7.64 |  | Cc1ccc([C@H](C)NC(=O)CCc2nc3ccncc3n2Cc2ccc(F)cc2)cc1 [Example 131, 3-[3-(4-Fluoro-benzyl)-3H-imidazo[4,5-c]pyridin-2-yl]-N-((S)-1-p-tolyl-ethyl)-propionamide]
7.28 |  | O=C(CCc1nc2ccncc2n1Cc1ccc(OC(F)(F)F)cc1)NCc1ccc(F)cc1 [Example 133, N-(4-Fluoro-benzyl)-3-[3-(4-trifluoromethoxy-benzyl)-3H-imidazo[4,5-c]pyridin-2-yl]-propionamide]
6.88 |  | CCC[C@H](NC(=O)CCc1nc2ccncc2n1Cc1ccc(F)cc1)c1ccccc1 [Example 134, 3-[3-(4-Fluoro-benzyl)-3H-imidazo[4,5-c]pyridin-2-yl]-N-((S)-1-phenyl-butyl)-propionamide]
5.80 |  | CC(C)(C)OC(=O)N1CCC(CNC(=O)CCc2nc3ccncc3n2Cc2ccc(OC(F)(F)F)cc2)CC1 [Example 135, 4-({3-[3-(4-Trifluoromethoxy-benzyl)-3H-imidazo[4,5-c]pyridin-2-yl]-propionylamino}-methyl)-piperidine-1-carboxylic acid tert-butyl ester]
6.94 |  | CC(C)(NC(=O)CCc1nc2ccncc2n1Cc1ccc(F)cc1)c1ccccc1 [Example 136, 3-[3-(4-Fluoro-benzyl)-3H-imidazo[4,5-c]pyridin-2-yl]-N-(1-methyl-1-phenyl-ethyl)-propionamide]
8.00 |  | C[C@H](NC(=O)CCc1cc2cccnc2n1Cc1ccc(OC(F)(F)F)cc1)c1ccc(F)cc1 [Example 137, N—[(S)-1-(4-fluoro-phenyl)-ethyl]-3-[1-(4-trifluoromethoxy-benzyl)-1H-pyrrolo[2,3-b]pyridin-2-yl]-propionamide]
8.00 |  | C[C@H](NC(=O)CCc1cc2cccnc2n1Cc1ccc(Cl)cc1)c1ccc(F)cc1 [Example 138, 3-[1-(4-Chloro-benzyl)-1H-pyrrolo[2,3-b]pyridin-2-yl]-N-[(S)-1-(4-fluoro-phenyl)-ethyl]-propionamide]
7.89 |  | C[C@H](NC(=O)CCc1cc2cc(F)cnc2n1Cc1ccc(OC(F)(F)F)cc1)c1ccc(F)cc1 [Example 139, N-[(S)-1-(4-Fluoro-phenyl)-ethyl]-3-[5-fluoro-1-(4-trifluoromethoxy-benzyl)-1H-pyrrolo[2,3-b]pyridin-2-yl]-propionamide]
7.89 |  | C[C@H](NC(=O)CCc1cc2cccnc2n1Cc1ccc(F)cc1)c1ccc(F)cc1 [Example 140, 3-[1-(4-Fluoro-benzyl)-1H-pyrrolo[2,3-b]pyridin-2-yl]-N-[(S)-1-(4-fluoro-phenyl)-ethyl]-propionamide]
7.85 |  | C[C@H](NC(=O)CCc1cc2cc(F)cnc2n1Cc1ccc(Cl)cc1)c1ccc(F)cc1 [Example 141, 3-[1-(4-Chloro-benzyl)-5-fluoro-1H-pyrrolo[2,3-b]byridin-2-yl]-N-[(S)-1-(4-fluoro-phenyl)-ethyl]-propionamide]
9.00 |  | O=C(CSc1nc2cccnc2n1Cc1ccc(OC(F)(F)F)cc1)N[C@@H](CO)c1ccccc1 [Example 142, N-((R)-2-Hydroxy-1-phenyl-ethyl)-2-[3-(4-trifluoromethoxy-benzyl)-3H-imidazo[4,5-b]pyridin-2-ylsulfanyl]-acetamide]
9.00 |  | O=C(CSc1nc2cccnc2n1Cc1ccc(F)cc1)N[C@@H](CO)c1ccccc1 [Example 143, 2-[3-(4-Fluoro-benzyl)-3H-imidazo[4,5-b]pyridin-2-ylsulfanyl]-N-((R)-2-hydroxy-1-phenyl-ethyl)-acetamide]
8.70 |  | C[C@H](NC(=O)CSc1nc2cccnc2n1Cc1ccc(OC(F)(F)F)cc1)c1ccc(Cl)cc1 [Example 144, N-[(S)-1-(4-Chloro-phenyl)-ethyl]-2-[3-(4-trifluoromethoxy-benzyl)-3H-imidazo[4,5-b]pyridin-2-ylsulfanyl]-acetamide]

pIC50 | pIC50 [1] | Structure (SMILES)
 | 8.70 | C[C@H](NC(=O)CSc1nc2cccnc2n1Cc1ccc(OC(F)(F)F)cc1)c1ccc(F)cc1 [Example 145, N—[(S)-1-(4-fluoro-phenyl)-ethyl]-2-[3-(4-trifluoromethoxy-benzyl)-3H-imidazo[4,5-b]pyridin-2-ylsulfanyl]-acetamide]
8.52 |  | C[C@H](NC(=O)CSc1nc2cccnc2n1Cc1ccc(F)cc1)c1ccc(F)cc1 [Example 146, 2-[3-(4-Fluoro-benzyl)-3H-imidazo[4,5-b]pyridin-2-ylsulfanyl]-N-[(S)-1-(4-fluoro-phenyl)-ethyl]-acetamide]
8.52 |  | C[C@H](NC(=O)CSc1nc2cccnc2n1Cc1ccc(F)cc1)c1ccc(N2CCOCC2)cc1 [Example 147, 2-[3-(4-Fluoro-benzyl)-3H-imidazo[4,5-b]pyridin-2-ylsulfanyl]-N-[(S)-1-(4-morpholin-4-yl-phenyl)-ethyl]-acetamide]
 | 5.54 | C[C@H](NC(=O)CS(=O)(=O)c1nc2cccnc2n1Cc1ccc(OC(F)(F)F)cc1)c1ccc(F)cc1 [Example 150, N—[(S)-1-(4-fluoro-phenyl)-ethyl]-2-[3-(4-trifluoromethoxy-benzyl)-3H-imidazo[4,5-b]pyridine-2-sulfonyl]-acetamide]
8.52 |  | O=C(COc1nc2cccnc2n1Cc1ccc(OC(F)(F)F)cc1)N[C@@H](CO)c1ccccc1 [Example 151, N-((R)-2-Hydroxy-1-phenyl-ethyl)-2-[3-(4-trifluoromethoxy-benzyl)-3H-imidazo[4,5-b]pyridin-2-yloxy]-acetamide]
 | 8.30 | C[C@H](NC(=O)COc1nc2cccnc2n1Cc1ccc(OC(F)(F)F)cc1)c1ccc(Cl)cc1 [Example 152, N—[(S)-1-(4-chloro-phenyl)-ethyl]-2-[3-(4-trifluoromethoxy-benzyl)-3H-imidazo[4,5-b]pyridin-2-yloxy]-acetamide]
 | 7.41 | C[C@H](NC(=O)COc1nc2cccnc2n1Cc1ccc(F)cc1)c1ccc(F)cc1 [Example 153, 2-[3-(4-fluoro-benzyl)-3H-imidazo[4,5-b]pyridin-2-yloxy]-N—[(S)-1-(4-fluoro-phenyl)-ethyl]-acetamide]
7.96 |  | CC(Sc1nc2cccnc2n1Cc1ccc(OC(F)(F)F)cc1)C(=O)N[C@@H](CO)c1ccccc1 (stereo partly drawn) [Example 154, N—((R)-2-hydroxy-1-phenyl-ethyl)-2-[3-(4-trifluoromethoxy-benzyl)-3H-imidazo[4,5-b]pyridin-2-ylsulfanyl]-propionamide]
6.60 |  | C[C@H](NC(=O)CCc1nc2cccnc2n1Cc1ccc(O)cc1)c1ccc(F)cc1 [Example 155, N—[(S)-1-(4-fluoro-phenyl)-ethyl]-3-[3-(4-hydroxy-benzyl)-3H-imidazo[4,5-b]pyridin-2-yl]-propionamide]
 | 8.00 | C[C@H](NC(=O)NCc1nc2cccnc2n1Cc1ccc(F)cc1)c1ccc(Cl)cc1 [Example 157, 1-[(S)-1-(4-Chloro-phenyl)-ethyl]-3-[3-(4-fluoro-benzyl)-3H-imidazo[4,5-b]pyridin-2-ylmethyl]-urea]
7.77 |  | C[C@H](NC(=O)NCc1nc2cccnc2n1Cc1ccc(F)c(F)c1)c1ccc(Br)cc1 [Example 158, 1-[(S)-1-(4-Bromo-phenyl)-ethyl]-3-[3-(3,4-difluoro-benzyl)-3H-imidazo[4,5-b]pyridin-2-ylmethyl]-urea]
7.38 |  | COc1ccc([C@H](C)NC(=O)NCc2nc3cccnc3n2Cc2ccc(F)cc2)cc1 [Example 159, 1-[3-(4-Fluoro-benzyl)-3H-imidazo[4,5-b]pyridin-2-ylmethyl]-3-[(S)-1-(4-methoxy-phenyl)-ethyl]-urea]
 | 7.10 | C[C@H](NC(=O)NCc1nc2cccnc2n1Cc1ccc(F)cc1)c1ccc(F)cc1 [Example 160, 1-[3-(4-Fluoro-benzyl)-3H-imidazo[4,5-b]pyridin-2-ylmethyl]-3-[(S)-1-(4-fluoro-phenyl)-ethyl]-urea]
6.94 |  | C[C@H](NC(=O)NCc1nc2cccnc2n1Cc1ccc(F)cc1)c1ccccc1 [Example 161, 1-[3-(4-fluoro-benzyl)-3H-imidazo[4,5-b]pyridin-2-ylmethyl]-3-((S)-1-phenyl-ethyl)-urea]
6.68 |  | O=C(NCc1nc2cccnc2n1Cc1ccc(F)c(F)c1)N[C@@H](CO)c1ccccc1 [Example 162, 1-[3-(3,4-difluoro-benzyl)-3H-imidazo[4,5-b]pyridin-2-ylmethyl]-3-((R)-2-hydroxy-1-phenyl-ethyl)-urea]
6.51 |  | C[C@H](NC(=O)NCc1nc2cccnc2n1Cc1ccc(F)c(F)c1)c1ccc(N2CCOCC2)cc1 [Example 163, 1-[3-(3,4-Difluoro-benzyl)-3H-imidazo[4,5-b]pyridin-2-ylmethyl]-3-[(S)-1-(4-morpholin-4-yl-phenyl)-ethyl]-urea]

Structure (SMILES) | pIC50 | pIC50 [1]
C[C@H](NC(=O)CCc1nc2ccncc2n1Cc1ccc(F)cc1)c1ccc(F)cc1 [Example 132, 3-[3-(4-Fluoro-benzyl)-3H-imidazo[4,5-c]pyridin-2-yl]-N-[(S)-1-(4-fluoro-phenyl)-ethyl]-propionamide] |  | 7.28
CC(C)COc1ccc(Cn2c(CCC(=O)N[C@@H](C)c3ccc(F)cc3)nc3cccnc32)cc1 [Example 156, N—[(S)-1-(4-fluoro-phenyl)-ethyl]-3-[3-(4-isobutoxy-benzyl)-3H-imidazo[4,5-b]pyridin-2-yl]-propionamide] | 6.15 | 

Source: patent US11453666B2, “Autotaxin inhibitory compounds” (Cancer Research Technology Limited, priority 2015, dated 2022)
